Data reported in PMC11249012 (Journal of Medicinal Chemistry, 2024).
In brackets after ≈: the same amount, converted by molar mass.

Key:
[1] = test system: 4T1 cells; assay: Cytokine and chemokine gene expression in 4T1 cells in vitro; assay type: cell-based, mouse; conditions: Figure 8A
[2] = test system: MDA-MB-231 TNBC cells; assay: RealTime-Glo cell viability assay, MDA-MB-231 cells; assay type: cell-based, human; conditions: for cytotoxicity: 100 nM, alone or in combination; for IC50: Homo sapiens, RealTime-Glo, 24 h, read-out: IC50 (cytotoxicity)
[3] = test system: 4T1 tumors; assay: 4T1 TNBC model in vivo (primary tumor and lung metastases); set-up: species or system mouse; conditions: 4T1 model; for #Surface metastases (lung): 1,25D 0.25 μg/kg, SAHA 80 mg/kg, AM-193 0.2 mg/kg, ZG-126 high 5.0 mg/kg, vehicle 166
Experimental: As 4T1 cells are aggressively metastatic, we can also assess the antimetastatic activity in the same experiment. All treatments were well tolerated, and, as in the B16-F10 model, none induced weight loss or other signs of stress over the course of the experiment (Figure 7A). Treatments reduced the primary tumor burden to varying degrees.
The antimetastatic activity was determined by counting the number of surface lung metastases of duplicate samples using a stereomicroscope. […] This degree of efficacy is remarkable, as in previous experiments, DK-406 reduced the metastatic burden by ∼2-fold.[30]
(§1) Finally, mice were sacrificed, and lungs of 4T1-bearing mice were removed to evaluate the efficiency of treatments on lung metastases.

[4] = test system: macrophage infiltration into 4T1 tumors; assay: Immunofluorescence of macrophages in 4T1 tumors (F4/80, Arg1); assay type: in vivo, mouse; conditions: Figure 8B
Experimental: Inhibition of PD-L1 and CD80/CD86 is directly achieved through the immune checkpoint blockade of their receptors using anti-CTLA-4 and anti-PD-1 antibodies.[69],[70]
Primary tumor tissues were fixed using 4% paraformaldehyde and subsequently dehydrated in sucrose solutions ranging from 10 to 30% for approximately 24 h each. The tissues were then embedded in base molds (Fisherbrand—#22363553) containing an optimal cutting temperature (OCT) compound (Fisher Healthcare—#4585). The tissue blocks were placed immediately on dry ice until the OCT compound solidified, and then they were stored at −80 °C. Prior to IF staining, sections of 5–10 μm were obtained using a Leica CM3050 S cryostat and SuperFrost Plus slides (Fisherbrand—#1255015). The tumor sections were then incubated with blocking buffer [phosphate-buffered saline containing 2% bovine serum albumin, 0.3% Triton X-100, 1% FBS, and 10% goat serum] for 1 h at RT. To detect macrophages in the TME, the sections were incubated with a pan-macrophage rat monoclonal antibody F4/80 (Abcam—#6640) diluted in blocking buffer overnight at 4 °C. Sixteen hours later, tissues were washed 3 times with 100 mM Tris–HCl and then incubated with a secondary goat antirat antibody (Invitrogen—#A11081) for 1 h at RT. […] Subsequently, 4′,6-diamidino-2-phenylindole (DAPI; Invitrogen—#D3571) was used to counterstain the nuclei for 5 min at RT. Finally, the slides were mounted using Fluoromount-G medium (Invitrogen—#00495802) and coverslips (Fisher Scientific—#12545E) and imaged with a Zeiss LSM 710 confocal microscope with ×20 objective. Quantification was carried out by QuPath software (version 0.3.2). F4/80+ macrophages and F4/80+ Arg1+ M2 macrophages were classified based on their fluorescence signal.

[5] = test system: 4T1 cells; assay: RealTime-Glo cell viability assay, 4T1 cells; conditions: for IC50: Mus musculus, 4T1, 24 h, read-out: IC50 (cytotoxicity)
[6] = test system: hyperacetylation of tubulin, H3K9 and H3K27; assay: Western blot of tubulin and histone H3 hyperacetylation in 4T1 cells; assay type: cell-based, mouse; conditions: hybrids 10 μM, SAHA 100 nM, 6 h
Experimental: The potential for compounds as HDACi’s can be rapidly tested in cells in culture by monitoring the hyperacetylation of histone H3 and tubulin. H3 acetylation is controlled by multiple class I enzymes, and the class IIb enzyme HDAC6 regulates tubulin acetylation.[36]−[39] […] (Figure 4A).
Figure 4 Evidence for HDAC inhibition in 4T1 and 4TO7 TNBC cells. Western blots and quantification of triplicate biological replicates analyzing the effects of 1,25D (100 nM), SAHA (100 nM), and hybrids (10 μM) on hyperacetylation of tubulin (A,D), H3K9 (B,E), and H3K27 (C,F) in 4T1 (A–C) and 4TO7 cells (D–F).
After 6 h treatments, 4T1, 4T07, or B16-F10 cells were solubilized in lysis buffer (20 mM Tris, pH 8, 150 mM NaCl, 1% Triton X-100, 3.5 mM SDS, and 13 mM deoxycholic acid), and proteins were separated on a 4–15% Tris/glycine/SDS gel (Bio-Rad). Then, the proteins were transferred to a nitrocellulose membrane, followed by blocking in 5% skim milk in Tris-buffered saline (TBS, 1×) solution. After blocking, the membranes were incubated overnight at 4 °C with the primary antibodies against acetylated tubulin (Sigma-Aldrich—#T7451), tubulin (Sigma-Aldrich—#T9026), acetyl-histone H3(Lys9) (Merck Millipore—#07-352), acetyl-histone H3 (Lys27) (Abcam—#ab4729), total histone H3 (Cell Signaling Technology (CST)—#3638), and GAPDH (Abcam—#ab8245). Then, the membranes were incubated with antimouse (CST—#7076) or antirabbit (CST—#7074) IgG HRP-linked secondary antibodies at recommended concentrations. Finally, signals were detected using Clarity ECL substrates (Bio-Rad) and a ChemiDoc Imaging System. Changes in protein levels were quantified relative to control using Image Lab software (version 6.0.1) after normalization to GAPDH. Western blot experiments were carried out three times.

[7] = in vivo; conditions: BALB/c, mouse, ip
[8] = test system: hyperacetylation of tubulin, H3K9 and H3K27; assay: Western blot of tubulin and histone H3 hyperacetylation in B16-F10 cells; assay type: cell-based, mouse; conditions: SAHA 100 nM
Description: B16-F10 cells are responsive to 1,25D analogues[45] and HDACi[46],[47] and are therefore widely used in preclinical studies of melanoma solid tumor growth and metastases.[48] Although curable when treated early, melanoma is fatal when invasive. The American Cancer Society projected 97,610 new invasive melanoma cases in the US in 2023 and 7990 deaths. Current treatment options include chemotherapy, surgery, immunotherapy, or single agents targeting mutated genes such as B-RAF or C-KIT.[49]
After 6 h treatments, 4T1, 4T07, or B16-F10 cells were solubilized in lysis buffer (20 mM Tris, pH 8, 150 mM NaCl, 1% Triton X-100, 3.5 mM SDS, and 13 mM deoxycholic acid), and proteins were separated on a 4–15% Tris/glycine/SDS gel (Bio-Rad). Then, the proteins were transferred to a nitrocellulose membrane, followed by blocking in 5% skim milk in Tris-buffered saline (TBS, 1×) solution. […] Finally, signals were detected using Clarity ECL substrates (Bio-Rad) and a ChemiDoc Imaging System. Changes in protein levels were quantified relative to control using Image Lab software (version 6.0.1) after normalization to GAPDH. […]
Figure S2. […] Quantification of the analyses of hyperacetylation in B16-F10 cells of tubulin, H3K9 and H3K27. […]

[9] = Solubility; assay type: physicochemical
[10] = test system: 4T1 tumors; set-up: method as in PMID 1540948; conditions: 4T1 model, previous experiments ref 30; cited from earlier work
[11] = molecular target: T1, VDR (Mus musculus, UniProt P48281); assay: Cyp24a1 gene induction (VDR agonism) in 4T1 cells; assay type: cell-based; set-up: endogenous in cells; conditions: Figure 2A
T1 sequence (P48281 1-422): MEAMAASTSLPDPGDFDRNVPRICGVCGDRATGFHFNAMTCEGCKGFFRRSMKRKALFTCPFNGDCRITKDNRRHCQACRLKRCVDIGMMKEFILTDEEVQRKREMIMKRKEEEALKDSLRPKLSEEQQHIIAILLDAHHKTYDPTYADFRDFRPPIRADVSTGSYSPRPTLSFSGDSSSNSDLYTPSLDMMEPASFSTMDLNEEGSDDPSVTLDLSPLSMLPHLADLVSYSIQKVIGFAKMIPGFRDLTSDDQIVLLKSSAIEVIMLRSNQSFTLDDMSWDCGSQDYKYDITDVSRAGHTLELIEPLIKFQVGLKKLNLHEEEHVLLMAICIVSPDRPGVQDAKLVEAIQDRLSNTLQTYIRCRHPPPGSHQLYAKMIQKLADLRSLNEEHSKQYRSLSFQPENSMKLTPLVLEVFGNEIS
Experimental: We first examined the effect of the modified structures on solubility. […] The bifunctionality of ZG compounds was then analyzed in a battery of assays. VDR agonism was determined by evaluating the induction of the Cyp24a1 gene. Cyp24a1 encodes the enzyme that initiates the catabolic degradation of 1,25D in a negative-feedback loop, and its gene transcription is exquisitely sensitive to the presence of the agonist-bound VDR. Agonism was assessed initially in mouse 4T1 cells and in related 4TO7 TNBC cells (Figure 2A,B). […] Apparent potencies were lower than those of DK-406 and AM-193.
RNA extraction was performed with the FavorPrep tissue total RNA mini kit (FAVORGEN Biotech Corporation FATRK 001) as per manufacturer’s instructions. cDNA was obtained from 1 μg of RNA using 5× All-in-One RT MasterMix (Applied Biological Materials (abm) Inc. G485) and diluted 5 times. qPCR was performed with BrightGreen 2× q-PCR MasterMix (abm MasterMix-LR-XL) on a Roche LightCycler 96 system. Expression of targeted genes was normalized to 18 s.

[12] = test system: B16-F10 tumors; assay: B16-F10 melanoma model in vivo; set-up: species or system mouse; conditions: C57BL/6 mice; ZG-126 5 mg/kg, AM-193 0.2 mg/kg, 1,25D 0.25 μg/kg, SAHA 80 mg/kg, gemcitabine 50 mg/kg
Experimental: We were then interested in comparing the efficacy of ZG compounds and other hybrids in tumor models in vivo. We focused initially on the B16-F10 melanoma which is syngeneic with C57BL/6 mice. The efficacy of ZG-126 in vivo in this model was tested in two experiments. […] In a second experiment, we compared the antitumor efficacy of hybrids at ∼0.5 MTD doses. […] All treatments were well tolerated, and body weights were unaffected (Figure 6C).
as §1

**Q.** Which “expression of Ccl2, Ccl5, Ccl20, and Cxcl10” value [1] does the source give for C=C1/C(=C\C=C2/CCC[C@]3(C)[C@@H]([C@H](C)CCCC(C)(C)O)CC[C@@H]23)C[C@@H](O)C[C@@H]1O [1,25D, 1,25-dihydroxyvitamin D] here?
**A.** inhibited

**Q.** What about the “expression of the gene encoding interleukin-1α” value [1] of the same compound?
**A.** induced

**Q.** And the cytotoxicity [2]?
**A.** did not display significant cytotoxicity

**Q.** And the “#Surface metastases (lung)” value [3]?
**A.** 114

**Q.** And the “total macrophage infiltration into 4T1 tumors (F4/80 staining)” value [4]?
**A.** significantly reduced

**Q.** Which IC50 [5] does the source give for CCC(CC)(c1ccc(OCCCCCC(=O)NO)cc1)c1ccc(OCC(O)C(C)(C)C)c(C)n1 (centres unmarked) [AM-193, reference compound] here?
**A.** 740 nM

**Q.** And the IC50 [2]?
**A.** 500 nM

**Q.** What about the tubulin acetylation [6] of the same compound?
**A.** highly efficacious inducer of tubulin acetylation

**Q.** What about the “#Surface metastases (lung)” value [3] of the same compound?
**A.** 89

**Q.** And the “effect on primary tumor burden” value ([3]; AM-193 0.2 mg/kg compared with ZG-126 5 mg/kg)?
**A.** less efficacious than the high dose of ZG-126

**Q.** And the MTD [7]?
**A.** 0.5 mg/kg

**Q.** Which “tubulin acetylation and histone hyperacetylation” value [8] does the source give for CCC(CC)(c1ccc(C(=O)NCCCCCC(=O)NO)cc1)c1ccc(OCC(O)C(C)(C)C)c(C)c1 (centres unmarked) [DK-406, reference compound] here?
**A.** induced very high levels of tubulin acetylation and histone hyperacetylation

**Q.** And the solubility [9]?
**A.** 4.40 µg/mL (≈ 8.35 µM)

**Q.** And the IC50 [5]?
**A.** 9080 nM

**Q.** And the IC50 [2]?
**A.** 2430 nM

**Q.** What about the “reduction of metastatic burden” value [10] of the same compound?
**A.** ~2 fold

**Q.** What about the MTD [7] of the same compound?
**A.** 1 mg/kg

**Q.** Which cytotoxicity ([5]; 4T1 cells, 100 nM, alone or in combination) does the source give for O=C(CCCCCCC(=O)Nc1ccccc1)NO [SAHA, reference compound] here?
**A.** did not display significant cytotoxicity

**Q.** What about the cytotoxicity [2] of the same compound?
**A.** did not display significant cytotoxicity

**Q.** And the “#Surface metastases (lung)” value [3]?
**A.** 139

**Q.** What about the “total macrophage infiltration into 4T1 tumors (F4/80 staining)” value [4] of the same compound?
**A.** not

**Q.** For CCC(CC)(c1ccc(C(=O)NCCCCCC(=O)NO)cc1)c1ccc(OCC(O)C(C)(C)C)c(C)n1 (centres unmarked) [ZG-102, 4-(3-(5-(2-Hydroxy-3,3-dimethylbutoxy)-6-methylpyridin-2-yl)pentan-3-yl)-N-(6-(hydroxyamino)-6-oxohexyl)benzamide], which solubility [9] is on record?
**A.** 4.45 µg/mL (≈ 8.43 µM)

**Q.** And the IC50 [5]?
**A.** 55800 nM

**Q.** What about the IC50 [2] of the same compound?
**A.** 2180 nM

**Q.** What about the Cyp24a1 induction [11] of the same compound?
**A.** did not appear to be a full agonist

**Q.** And the MTD [7]?
**A.** 10 mg/kg

**Q.** Which solubility [9] does the source give for CCC(CC)(c1ccc(C(=O)NCCCC(=O)NO)cc1)c1ccc(OCC(O)C(C)(C)C)c(C)n1 (centres unmarked) [ZG-132, 4-(3-(5-(2-Hydroxy-3,3-dimethylbutoxy)-6-methylpyridin-2-yl)pentan-3-yl)-N-(4-(hydroxyamino)-4-oxobutyl)benzamide] here?
**A.** 10.71 µg/mL (≈ 21.4 µM)

**Q.** What about the IC50 [5] of the same compound?
**A.** 4550 nM

**Q.** What about the IC50 [2] of the same compound?
**A.** 950 nM

**Q.** And the Cyp24a1 induction [11]?
**A.** did not appear to be a full agonist

**Q.** What about the MTD [7] of the same compound?
**A.** 10 mg/kg

**Q.** For Nc1ccn([C@@H]2O[C@H](CO)[C@@H](O)C2(F)F)c(=O)n1 [gemcitabine, reference compound], which B16-F10 tumor burden [12] is on record?
**A.** statistically significant reduction in tumor burden
